Laboratory results as given in patent US9914710B2, “Bicyclic arylcarboxylic acid amides and their use as herbicides” (BAYER CROPSCIENCE AKTIENGESELLSCHAFT, priority 2014, dated 2018).

Experiments:
Experiment in all cases: Post-emergence herbicidal action against harmful plants
Format in all cases: in vivo
Settings in all cases: one-leaf stage, application rate 80 g/ha, assessed visually after about 3 weeks vs untreated controls
Stellaria media = test system: Stellaria media
Description: (§1) Seeds of monocotyledonous and dicotyledonous weed and crop plants are laid out in sandy loam in wood-fiber pots, covered with soil and cultivated in a greenhouse under good growth conditions. 2 to 3 weeks after sowing, the test plants are treated at the one-leaf stage. The compounds of the invention, formulated in the form of wettable powders (WP) or as emulsion concentrates (EC), are then sprayed onto the green parts of the plants in the form of an aqueous suspension or emulsion at a water application rate equating to 600 to 800 I/ha, with addition of 0.2% wetting agent. After the test plants have been left to stand in the greenhouse under optimal growth conditions for about 3 weeks, the action of the preparations is assessed visually in comparison to untreated controls (herbicidal action in percent (%): 100% activity=the plants have died, 0% activity=like control plants). For example, compounds no. 1-18, 1-19, 1-20, 1-21, 1-23, 1-25, 1-26, 1-27, 1-30, 1-32, 1-51, 1-52, 1-53, 1-63, 1-65, 1-69, 1-70, 1-75, 1-76, 1-77, 1-78, 1-79, 1-80, 1-84, 2-18, 2-20 and 4-18 at an application rate of 80 g/ha each have 100% efficacy against Stellaria media, Veronica persica and Viola tricolor.

Viola tricolor = test system: Viola tricolor
Description: as §1

Veronica persica = test system: Veronica persica
Description: as §1

CCn1nnnc1NC(=O)c1cc2c(c(S(C)(=O)=O)c1Cl)CCC2 [1-26]
100%: efficacy (herbicidal action in percent) against Stellaria media (Stellaria media) | efficacy (herbicidal action in percent) against Viola tricolor (Viola tricolor) | efficacy (herbicidal action in percent) against Veronica persica (Veronica persica)

CSc1c(Cl)c(C(=O)Nc2nnnn2C)cc2c1CCO2 [1-69]
100%: efficacy (herbicidal action in percent) against Stellaria media (Stellaria media) | efficacy (herbicidal action in percent) against Viola tricolor (Viola tricolor) | efficacy (herbicidal action in percent) against Veronica persica (Veronica persica)

CSc1c(Cl)c(C(=O)Nc2nnnn2C)cc2c1C(=O)CC2 [1-30]
100%: efficacy (herbicidal action in percent) against Stellaria media (Stellaria media) | efficacy (herbicidal action in percent) against Viola tricolor (Viola tricolor) | efficacy (herbicidal action in percent) against Veronica persica (Veronica persica)

Cn1nnnc1NC(=O)c1cc2c(c(S(C)(=O)=O)c1Cl)CCC2 [1-20]
100%: efficacy (herbicidal action in percent) against Stellaria media (Stellaria media) | efficacy (herbicidal action in percent) against Viola tricolor (Viola tricolor) | efficacy (herbicidal action in percent) against Veronica persica (Veronica persica)

CCS(=O)(=O)c1c(Cl)c(C(=O)Nc2nnnn2C)cc2c1CCC2 [1-23]
100%: efficacy (herbicidal action in percent) against Stellaria media (Stellaria media) | efficacy (herbicidal action in percent) against Viola tricolor (Viola tricolor) | efficacy (herbicidal action in percent) against Veronica persica (Veronica persica)

Cn1nnnc1NC(=O)c1cc2c(c([S+](C)[O-])c1Cl)CCC2 (racemic) [1-19]
100%: efficacy (herbicidal action in percent) against Stellaria media (Stellaria media) | efficacy (herbicidal action in percent) against Viola tricolor (Viola tricolor) | efficacy (herbicidal action in percent) against Veronica persica (Veronica persica)

CSc1c(Cl)c(C(=O)Nc2nnc(C)o2)cc2c1CCC2 [4-18]
100%: efficacy (herbicidal action in percent) against Stellaria media (Stellaria media) | efficacy (herbicidal action in percent) against Viola tricolor (Viola tricolor) | efficacy (herbicidal action in percent) against Veronica persica (Veronica persica)

Cn1nnnc1NC(=O)c1cc2c(c(S(C)(=O)=O)c1Cl)OCC2 [1-65]
100%: efficacy (herbicidal action in percent) against Stellaria media (Stellaria media) | efficacy (herbicidal action in percent) against Viola tricolor (Viola tricolor) | efficacy (herbicidal action in percent) against Veronica persica (Veronica persica)

CCS(=O)(=O)c1c(Br)c(C(=O)Nc2nnnn2C)cc2c1CCC2 [1-80]
100%: efficacy (herbicidal action in percent) against Stellaria media (Stellaria media) | efficacy (herbicidal action in percent) against Viola tricolor (Viola tricolor) | efficacy (herbicidal action in percent) against Veronica persica (Veronica persica)

Cn1nnnc1NC(=O)c1cc2c(c(S(C)(=O)=O)c1Cl)CCCC2 [1-53]
100%: efficacy (herbicidal action in percent) against Stellaria media (Stellaria media) | efficacy (herbicidal action in percent) against Viola tricolor (Viola tricolor) | efficacy (herbicidal action in percent) against Veronica persica (Veronica persica)

CSc1c(Cl)c(C(=O)Nc2ncnn2C)cc2c1CCC2 [2-18]
100%: efficacy (herbicidal action in percent) against Stellaria media (Stellaria media) | efficacy (herbicidal action in percent) against Viola tricolor (Viola tricolor) | efficacy (herbicidal action in percent) against Veronica persica (Veronica persica)

CCSc1c(Br)c(C(=O)Nc2nnnn2CC)cc2c1CCC2 [1-84]
100%: efficacy (herbicidal action in percent) against Stellaria media (Stellaria media) | efficacy (herbicidal action in percent) against Viola tricolor (Viola tricolor) | efficacy (herbicidal action in percent) against Veronica persica (Veronica persica)

CC[S+]([O-])c1c(Br)c(C(=O)Nc2nnnn2C)cc2c1CCC2 (racemic) [1-79]
100%: efficacy (herbicidal action in percent) against Stellaria media (Stellaria media) | efficacy (herbicidal action in percent) against Viola tricolor (Viola tricolor) | efficacy (herbicidal action in percent) against Veronica persica (Veronica persica)

CSc1c(Cl)c(C(=O)Nc2nnnn2C)cc2c1OCC2 [1-63]
100%: efficacy (herbicidal action in percent) against Stellaria media (Stellaria media) | efficacy (herbicidal action in percent) against Viola tricolor (Viola tricolor) | efficacy (herbicidal action in percent) against Veronica persica (Veronica persica)

Cn1nnnc1NC(=O)c1cc2c(c([S+](C)[O-])c1Cl)CCCC2 (racemic) [1-52]
100%: efficacy (herbicidal action in percent) against Stellaria media (Stellaria media) | efficacy (herbicidal action in percent) against Viola tricolor (Viola tricolor) | efficacy (herbicidal action in percent) against Veronica persica (Veronica persica)

CSc1c(Br)c(C(=O)Nc2nnnn2C)cc2c1CCC2 [1-75]
100%: efficacy (herbicidal action in percent) against Stellaria media (Stellaria media) | efficacy (herbicidal action in percent) against Viola tricolor (Viola tricolor) | efficacy (herbicidal action in percent) against Veronica persica (Veronica persica)

CCSc1c(Br)c(C(=O)Nc2nnnn2C)cc2c1CCC2 [1-78]
100%: efficacy (herbicidal action in percent) against Stellaria media (Stellaria media) | efficacy (herbicidal action in percent) against Viola tricolor (Viola tricolor) | efficacy (herbicidal action in percent) against Veronica persica (Veronica persica)

Cn1nnnc1NC(=O)c1cc2c(c(S(C)(=O)=O)c1Cl)C(=O)CC2 [1-32]
100%: efficacy (herbicidal action in percent) against Stellaria media (Stellaria media) | efficacy (herbicidal action in percent) against Viola tricolor (Viola tricolor) | efficacy (herbicidal action in percent) against Veronica persica (Veronica persica)

CCSc1c(Cl)c(C(=O)Nc2nnnn2C)cc2c1CCC2 [1-21]
100%: efficacy (herbicidal action in percent) against Stellaria media (Stellaria media) | efficacy (herbicidal action in percent) against Viola tricolor (Viola tricolor) | efficacy (herbicidal action in percent) against Veronica persica (Veronica persica)

CCn1nnnc1NC(=O)c1cc2c(c([S+](C)[O-])c1Cl)CCC2 (racemic) [1-25]
100%: efficacy (herbicidal action in percent) against Stellaria media (Stellaria media) | efficacy (herbicidal action in percent) against Viola tricolor (Viola tricolor) | efficacy (herbicidal action in percent) against Veronica persica (Veronica persica)

Cn1nnnc1NC(=O)c1cc2c(c([S+](C)[O-])c1Br)CCC2 (racemic) [1-76]
100%: efficacy (herbicidal action in percent) against Stellaria media (Stellaria media) | efficacy (herbicidal action in percent) against Viola tricolor (Viola tricolor) | efficacy (herbicidal action in percent) against Veronica persica (Veronica persica)

Cn1nnnc1NC(=O)c1cc2c(c(S(C)(=O)=O)c1Br)CCC2 [1-77]
100%: efficacy (herbicidal action in percent) against Stellaria media (Stellaria media) | efficacy (herbicidal action in percent) against Viola tricolor (Viola tricolor) | efficacy (herbicidal action in percent) against Veronica persica (Veronica persica)

Cn1nnnc1NC(=O)c1cc2c(c([S+](C)[O-])c1Cl)CCO2 (racemic) [1-70]
100%: efficacy (herbicidal action in percent) against Stellaria media (Stellaria media) | efficacy (herbicidal action in percent) against Viola tricolor (Viola tricolor) | efficacy (herbicidal action in percent) against Veronica persica (Veronica persica)

CSc1c(Cl)c(C(=O)Nc2nnnn2C)cc2c1CCC2 [1-18]
100%: efficacy (herbicidal action in percent) against Stellaria media (Stellaria media) | efficacy (herbicidal action in percent) against Viola tricolor (Viola tricolor) | efficacy (herbicidal action in percent) against Veronica persica (Veronica persica)

Cn1ncnc1NC(=O)c1cc2c(c(S(C)(=O)=O)c1Cl)CCC2 [2-20]
100%: efficacy (herbicidal action in percent) against Stellaria media (Stellaria media) | efficacy (herbicidal action in percent) against Viola tricolor (Viola tricolor) | efficacy (herbicidal action in percent) against Veronica persica (Veronica persica)

CCSc1c(Cl)c(C(=O)Nc2nnnn2CC)cc2c1CCC2 [1-27]
100%: efficacy (herbicidal action in percent) against Stellaria media (Stellaria media) | efficacy (herbicidal action in percent) against Viola tricolor (Viola tricolor) | efficacy (herbicidal action in percent) against Veronica persica (Veronica persica)

CSc1c(Cl)c(C(=O)Nc2nnnn2C)cc2c1CCCC2 [1-51, N-(1-methyltetrazol-5-yl)-3-chloro-4-(methylthio)-5,6,7,8-tetrahydronaphthalene-2-carboxamide]
100%: efficacy (herbicidal action in percent) against Stellaria media (Stellaria media) | efficacy (herbicidal action in percent) against Viola tricolor (Viola tricolor) | efficacy (herbicidal action in percent) against Veronica persica (Veronica persica)
